Data: patent US5756121A, “Antibiotic formulation and use for drug resistant infections” (NeXstar Pharmaceuticals, Inc., priority 1995, dated 1998)
Where “and” joins values, the source holds several entries; their conditions need not be identical. Equal values may be shown once.

How the values were obtained:
[1] = mice, 150 mg/kg; known in the art; cited from earlier work
[2] = system: M. tuberculosis, drug susceptible strain H37RV; test: Activity against drug susceptible TB in infected human monocyte-derived macrophages; format: cell-based, Mycobacterium tuberculosis (in human macrophages); settings: for CFU: duplicate values
Pseudomonas aeruginosa = test: Efficacy and toxicity in Pseudomonas infected mice (mortality); format: in vivo, Pseudomonas aeruginosa (clinical isolate) in CF-1 mice
Protocol: The efficacy and toxicity of liposomal amikacin in Pseudomonas infected mice was tested. CF-1 mice were used (females, 6-8 weeks old). The mice were obtained from Jackson Labs. A clinical isolate of Pseudomonas aeruginosa was obtained on a Mueller Hinton/MacConkey blood agar plate. The organisms were transferred to a Mueller Hinton plate and grown for 24 hours. Colonies were transferred to saline and grown for 48 hours. The samples were frozen in saline containing 15% fetal calf serum at 1×10^8 organisms/ml (MacFarland Standard). The colonies were stored at -70° C. The colonies were thawed and grown in a Mueller Hinton plate for 24 hours. The bacteria were adjusted to 8×10^6 organisms/ml in saline containing talc (62.5 mg/ml) and 1 ml was injected intraperitoneal. A culture of inoculum on MH agar for 24 hours determined that approximately 7×10^6 cfu were delivered per mouse. Liposomal amikacin and empty liposomes were prepared as set out in Example 2. […] The lipid concentration was 95.31 mg/ml and the amikacin concentration was 23.54 mg/ml (0.25 drug/lipid ratio). The pH of the solution containing the formulation was 7.31. […] The concentration of the free amikacin solution was 23.54 mg/ml. The pH of the solution containing the liposomes was 7.33.
Mice were treated with 40 mg/kg (drug per body-weight), 80 mg/kg, 120 mg/kg and 240 mg/kg of liposomal amikacin. Mice were also treated with 40 mg/kg, 80 mg/kg, and 120 mg/kg of free amikacin. The drugs were administered intravenously in the caudal vein. Two doses were given; one at four hours after infection and one at twenty-four hours after infection.

MAC (101, type 1) = test: Treatment of MAC-infected beige mice, first experiment (organism burden in spleen, liver, lung); format: in vivo
Protocol: The testing of liposome encapsulated amikacin for the treatment of MAC was performed using a murine model. Beige mice (C57B1/6bg^j /bg^j) were infected with MAC (101, type 1). The mice were infected by injection of 1×10^7 Colony Forming Units (cfu) in the mouse tail vein (i.v.). Three experiments were performed. In the first experiment, 40, 80 and 120 milligrams of amikacin (liposomal and free) per kilogram of mouse body-weight was given i.v. daily for 5 days, beginning 7 days after infection. The animals were sacrificed 5 days after treatment was completed and the liver, lung and spleen tissue were plated. Quantitation of organisms in liver, spleen and lung tissue was performed. The cfu were determined by growth on Middlebrook 7h11 agar plates. Untreated and empty liposomes were used as controls.
The liposomes were prepared as in Example 1. This experiment was performed in two identical parts. The liposomes in the first part were of an average size of 49.8 nm and the average size of the liposomes in the second part were 73.7 nm (mean diameter). The amikacin concentration was either 15.0 mg/ml or 13.21 mg/ml and the total lipid concentration was either 121 mg/ml or 55.7 mg/ml respectively (drug to lipid ratios: 0.123, 0.24). Free drug for all experiments was prepared in the same buffer that the liposomal formulations were contained in.

in vivo = test: in vivo; parameters: species or system mouse (C57B1/6); settings: mouse
Protocol: Amikacin content was measured in mouse (C57B1/6, females 2-3 months old) plasma after injection (i.v.) of free amikacin or liposomal amikacin (100 mg/kg). Liposomal amikacin was prepared as described in Example 2. Blood samples were obtained at various time intervals. The samples were collected by removing 100 microliters of blood, retroorbitally, from nonanesthetized mice. The samples were collected in heparinized capillary pipets which were plugged with modeling clay. The samples were centrifuged at 3250 rpm (20 cm rotor) for 10 minutes. The samples were analyzed using a radioimmunoassay (Diagnostic Products). The liposomal amikacin formulation contained liposomes with an average size of 43.6 nm (median diameter). The amikacin concentration was 10.09 mg/ml and the total lipid concentration was 56.8 mg/ml (drug to lipid ratio […]).

Structure (SMILES): NCC[C@H](O)C(=O)N[C@@H]1C[C@H](N)[C@@H](O[C@H]2O[C@H](CN)[C@@H](O)[C@H](O)[C@H]2O)[C@H](O)[C@H]1O[C@H]1O[C@H](CO)[C@@H](O)[C@H](N)[C@H]1O [amikacin]
- lethality (in words) [1]: will kill many of the mice injected
- inhibition / killing of drug susceptible bacteria (in words) ([2]; 1 μg/ml): inhibited the growth of the bacteria
- CFU ([2]; 1 μg/ml, day 4): 50 1 × 10^3 cfu per monolayer and 60 1 × 10^3 cfu per monolayer
- CFU ([2]; 1 μg/ml, day 7): 900 1 × 10^3 cfu per monolayer and 800 1 × 10^3 cfu per monolayer
- inhibition / killing of drug susceptible bacteria (in words) ([2]; 2 μg/ml, day 4): inhibition
- CFU ([2]; 2 μg/ml, day 4): 20 1 × 10^3 cfu per monolayer
- CFU ([2]; 2 μg/ml, day 7): 40 1 × 10^3 cfu per monolayer and 50 1 × 10^3 cfu per monolayer
- inhibition / killing of drug susceptible bacteria (in words) ([2]; 4 μg/ml, day 4): killing at day 4
- CFU ([2]; 4 μg/ml, day 4): 4 1 × 10^3 cfu per monolayer and 5 1 × 10^3 cfu per monolayer
- CFU ([2]; 4 μg/ml, day 7): 1.5 1 × 10^3 cfu per monolayer and 3 1 × 10^3 cfu per monolayer
- Mortality #died/#tested (Pseudomonas aeruginosa; 40 mg/kg i.v., two doses (4 h and 24 h after infection), 24 hours post infection): 1/4
- Mortality #died/#tested (Pseudomonas aeruginosa; 40 mg/kg i.v., two doses, 30 hours post infection): 1/4
- Mortality #died/#tested (Pseudomonas aeruginosa; 40 mg/kg i.v., two doses, 48 hours post infection): 1/4
- Mortality #died/#tested (Pseudomonas aeruginosa; 40 mg/kg i.v., two doses, 72 hours post infection): 1/4
- Mortality #died/#tested (Pseudomonas aeruginosa; 80 mg/kg i.v., two doses (4 h and 24 h after infection), 24 hours post infection): 0/6
- Mortality #died/#tested (Pseudomonas aeruginosa; 80 mg/kg i.v., two doses, 30 hours post infection): 0/6
- Mortality #died/#tested (Pseudomonas aeruginosa; 80 mg/kg i.v., two doses, 48 hours post infection): 0/6
- Mortality #died/#tested (Pseudomonas aeruginosa; 80 mg/kg i.v., two doses, 72 hours post infection): 0/6
- Mortality #died/#tested (Pseudomonas aeruginosa; 120 mg/kg i.v., two doses (4 h and 24 h after infection), 24 hours post infection): 0/6
- Mortality #died/#tested (Pseudomonas aeruginosa; 120 mg/kg i.v., two doses, 30 hours post infection): 0/6
- Mortality #died/#tested (Pseudomonas aeruginosa; 120 mg/kg i.v., two doses, 48 hours post infection): 0/6
- Mortality #died/#tested (Pseudomonas aeruginosa; 120 mg/kg i.v., two doses, 72 hours post infection): 0/6
- Lung log cfu/gram (MAC (101, type 1); 40 mg/kg i.v. daily for 5 days): 6.16 log
- Lung log cfu/gram (MAC (101, type 1); 80 mg/kg i.v. daily for 5 days): 6.11 log
- Lung log cfu/gram (MAC (101, type 1); 120 mg/kg i.v. daily for 5 days): 6.00 log
- Average plasma concentration of amikacin (in vivo; 100 mg/kg i.v., 6 hours): none detected
- concentration at 5 min (in vivo; in vivo, iv, 100 mg/kg): 406 µg/mL
- concentration at 0.25 h (in vivo; in vivo, iv, 100 mg/kg): 106 µg/mL
- concentration at 2 h (in vivo; in vivo, iv, 100 mg/kg): 65 µg/mL
